Measurements from patent publication US20260317340A1, “COMPOUNDS, COMPOSITIONS, AND METHODS OF TREATING DISORDERS” (Chengdu Anticancer Bioscience, Ltd., priority 2023, published 2026).
Read-outs that look alike come from different tables or passages of the source.

What was measured:
[1] = tested on: RPE-Neo or RPE-MYC or RPE-MYC expressing an EGFP-Histone 2B fusion protein; assay: Phenotypic screening assay: arrest in mitosis, change in DNA content (polyploidy), cell death; assay type: cell-based; details: 20 nM to 20 μM, 24, 48 or 72 hours
Protocol: (§1) Human cancer cell lines were obtained from ATCC and cultured in DMEM (Gibco, Cleveland, TN, USA) supplemented with 5% fetal bovine serum (Gibco), penicillin (100 U/mL)-streptomycin (100 μg/mL) (Gibco, Cat. No. 15140-122), 2 mM L-glutamine (Gibco, 200 mM solution, Cat. No. 25030081), and 1 mM sodium pyruvate (Gibco, 100 mM solution, Cat. No. 11360070) at 37° C. in a humidified incubator that was maintained at 5% CO2.
Screening was conducted as described before (Li et al. 2019). Briefly, RPE-Neo or RPE-MYC or RPE-MYC expressing an EGFP-Histone 2B fusion protein were passaged as batches of 96-well plates, 18-24 hours before exposure to the chemical compounds of the present disclosure at concentrations from 20 nM to 20 μM. At 24, 48 or 72 hours after initiation of treatment, cells were analyzed for either an arrest in mitosis or a change in DNA content by GE IN-Cell Analyzer 2000. MTT assays of cellular proliferation were performed as previously described (Li et al. 2019).
(§2) As set forth in table 2 below, an values of greater than or equal to 1 nM and less than or equal to 1.0 μM is marked “A”; a value greater than 1.00 μM and less than or equal to 10.0 μM is marked “B”; a value greater than 10.0 μM and less than or equal to 30.0 μM is marked “C”; and a value greater than 30.0 μM and less than 1000 μM is marked “D.”

RPE-Neo or RPE-MYC cells = assay: MTT assay of cellular proliferation (proliferative arrest); assay type: cell-based; details: for minimal effective concentration: read-out: Min. Effective conc. for Proliferative arrest (>50%)
Protocol: as §1
Screening was conducted as described before (Li et al. 2019). Briefly, RPE-Neo or RPE-MYC or RPE-MYC expressing an EGFP-Histone 2B fusion protein were passaged as batches of 96-well plates, 18-24 hours before exposure to the chemical compounds of the present disclosure at concentrations from 20 nM to 20 μM. At 24, 48 or 72 hours after initiation of treatment, cells were analyzed for either an arrest in mitosis or a change in DNA content by GE IN-Cell Analyzer 2000. MTT assays of cellular proliferation were performed as previously described (Li et al. 2019). […]
as §2

[2] = read-out: Min. Effective conc. for Along with Cell Death
[3] = ≥5%, read-out: Min. Effective conc. for Mitotic Arrest (≥5%)
[4] = ≥5%, read-out: Min. Effective conc. for Polyploidy (≥5%)

Cc1ccc(CN2C(=O)CC(c3nnc(C4CC4)o3)=C(Br)c3scc(C)c32)cc1F [Compound 1, 8-Bromo-7-(5-cyclopropyl-1,3,4-oxadiazol-2-yl)-4-(3-fluoro-4-methylbenzyl)-3-methyl-4,6-dihydro-5H-thieno[3,2-b]azepin-5-one]
minimal effective concentration [1, 2]: 0.001 to 1 µM | minimal effective concentration [1, 3]: 0.001 to 1 µM | minimal effective concentration [1, 4]: 0.001 to 1 µM | minimal effective concentration (RPE-Neo or RPE-MYC cells): 0.001 to 1 µM

Cc1ccc(CN2C(=O)CC(c3nnc(C4CC4)o3)=C(Br)c3ccc(OCCOCCOCCOCCOc4ccc5c(c4)N(Cc4ccc(C)c(F)c4)C(=O)CC(c4nnc(C6CC6)o4)=C5Br)cc32)cc1F [Compound 2, 8,8′-((((Oxybis(ethane-2,1-diyl))bis(oxy))bis(ethane-2,1-diyl))bis(oxy))bis(5-bromo-4-(5-cyclopropyl-1,3,4-oxadiazol-2-yl)-1-(3-fluoro-4-methylbenzyl)-1,3-dihydro-2H-benzo[b]azepin-2-one)]
minimal effective concentration [1, 2]: 1 to 10 µM | minimal effective concentration [1, 3]: 1 to 10 µM | minimal effective concentration [1, 4]: 1 to 10 µM | minimal effective concentration (RPE-Neo or RPE-MYC cells): 1 to 10 µM

Cc1ccc(CN2C(=O)CC(c3nnc(C4CC4)o3)=C(Br)c3ccc(OCCOCCOCCOc4ccc5c(c4)N(Cc4ccc(C)c(F)c4)C(=O)CC(c4nnc(C6CC6)o4)=C5Br)cc32)cc1F [Compound 3, 8,8′-(((Ethane-1,2-diylbis(oxy))bis(ethane-2,1-diyl))bis(oxy))bis(5-bromo-4-(5-cyclopropyl-1,3,4-oxadiazol-2-yl)-1-(3-fluoro-4-methylbenzyl)-1,3-dihydro-2H-benzo[b]azepin-2-one)]
minimal effective concentration [1, 2]: 1 to 10 µM | minimal effective concentration [1, 3]: 1 to 10 µM | minimal effective concentration [1, 4]: 1 to 10 µM | minimal effective concentration (RPE-Neo or RPE-MYC cells): 1 to 10 µM

COc1ccc(CN2C(=O)CC(c3nnc(C4CC4)o3)=C(Br)c3cccc(F)c32)cc1 [Compound 4, 5-bromo-4-(5-cyclopropyl-1,3,4-oxadiazol-2-yl)-9-fluoro-1-(4-methoxybenzyl)-1,3-dihydro-2H-benzo[b]azepin-2-one]
minimal effective concentration [1, 2]: 0.001 to 1 µM | minimal effective concentration [1, 3]: 0.001 to 1 µM | minimal effective concentration [1, 4]: 0.001 to 1 µM | minimal effective concentration (RPE-Neo or RPE-MYC cells): 0.001 to 1 µM

COc1ccc(CN2C(=O)CC(c3nnc(C4CC4)o3)=C(Br)c3ccccc32)c(F)c1 [Compound 5, 5-Bromo-4-(5-cyclopropyl-1,3,4-oxadiazol-2-yl)-1-(2-fluoro-4-methoxybenzyl)-1,3-dihydro-2H-benzo[b]azepin-2-one]
minimal effective concentration [1, 2]: 0.001 to 1 µM | minimal effective concentration [1, 3]: 0.001 to 1 µM | minimal effective concentration [1, 4]: 0.001 to 1 µM | minimal effective concentration (RPE-Neo or RPE-MYC cells): 0.001 to 1 µM

CCc1ccc(CN2C(=O)CC(c3nnc(C4CC4)o3)=C(Br)c3ccccc32)cc1 [Compound 6, 5-Bromo-4-(5-cyclopropyl-1,3,4-oxadiazol-2-yl)-1-(4-ethylbenzyl)-1,3-dihydro-2H-benzo[b]azepin-2-one]
minimal effective concentration [1, 2]: 0.001 to 1 µM | minimal effective concentration [1, 3]: 0.001 to 1 µM | minimal effective concentration [1, 4]: 0.001 to 1 µM | minimal effective concentration (RPE-Neo or RPE-MYC cells): 0.001 to 1 µM

COc1ccc(CN2C(=O)CC(c3cnco3)=C(Br)c3ccccc32)cc1 [Compound 7, 5-Bromo-1-(4-methoxybenzyl)-4-(oxazol-5-yl)-1,3-dihydro-21-benzo[b]azepin-2-one]
Min. Effective conc. for Along with Cell Death [1]: A (greater than or equal to 1 nM and less than or equal to 1.0 μM) | Min. Effective conc. for Mitotic Arrest (≥5%) ([1]; ≥5%): A (greater than or equal to 1 nM and less than or equal to 1.0 μM) | Min. Effective conc. for Polyploidy (≥5%) ([1]; ≥5%): A (greater than or equal to 1 nM and less than or equal to 1.0 μM) | Min. Effective conc. for Proliferative arrest (>50%) (RPE-Neo or RPE-MYC cells; >50%): A (greater than or equal to 1 nM and less than or equal to 1.0 μM)

COc1ccc(CN2C(=O)CC(c3ccon3)=C(Br)c3ccccc32)cc1 [Compound 8, 5-Bromo-4-(isoxazol-3-yl)-1-(4-methoxybenzyl)-1,3-dihydro-2H-benzo[b]azepin-2-one]
minimal effective concentration [1, 2]: 0.001 to 1 µM | minimal effective concentration [1, 3]: 0.001 to 1 µM | minimal effective concentration [1, 4]: 0.001 to 1 µM | minimal effective concentration (RPE-Neo or RPE-MYC cells): 0.001 to 1 µM

COc1ccc(CN2C(=O)CC(c3nnc(C)o3)=C(Br)c3ccccc32)cc1 [Compound 9, 5-Bromo-1-(4-methoxybenzyl)-4-(5-methyl-1,3,4-oxadiazol-2-yl)-1,3-dihydro-2H-benzo[b]azepin-2-one]
minimal effective concentration [1, 2]: 0.001 to 1 µM | minimal effective concentration [1, 3]: 0.001 to 1 µM | minimal effective concentration [1, 4]: 0.001 to 1 µM | minimal effective concentration (RPE-Neo or RPE-MYC cells): 0.001 to 1 µM

COc1ccc(CN2C(=O)CC(c3nnc(N)s3)=C(Br)c3ccccc32)cc1 [Compound 10, 4-(5-Amino-1,3,4-thiadiazol-2-yl)-5-bromo-1-(4-methoxybenzyl)-1,3-dihydro-2H-benzo[b]azepin-2-one]
minimal effective concentration [1, 2]: 0.001 to 1 µM | minimal effective concentration [1, 3]: 0.001 to 1 µM | minimal effective concentration [1, 4]: 0.001 to 1 µM | minimal effective concentration (RPE-Neo or RPE-MYC cells): 0.001 to 1 µM

COc1ccc(CN2C(=O)CC(c3ncc(C)o3)=C(Br)c3ccccc32)cc1 [Compound 11, 5-Bromo-1-(4-methoxybenzyl)-4-(5-methyloxazol-2-yl)-1,3-dihydro-2H-benzo[b]azepin-2-one]
minimal effective concentration [1, 2]: 0.001 to 1 µM | minimal effective concentration [1, 3]: 0.001 to 1 µM | minimal effective concentration [1, 4]: 0.001 to 1 µM | minimal effective concentration (RPE-Neo or RPE-MYC cells): 0.001 to 1 µM

COC(=O)C1=Cc2ccccc2N(Cc2ccc(C)c(F)c2)C(=O)C1 [Compound 12, methyl 1-(3-fluoro-4-methylbenzyl)-2-oxo-2,3-dihydro-1H-benzo[b]azepine-4-carboxylate]
minimal effective concentration [1, 2]: 0.001 to 1 µM | minimal effective concentration [1, 3]: 0.001 to 1 µM | minimal effective concentration [1, 4]: 0.001 to 1 µM | minimal effective concentration (RPE-Neo or RPE-MYC cells): 0.001 to 1 µM

Cc1ccc(CN2C(=O)CC(c3nnc(C4CC4)o3)=Cc3ccccc32)cc1F [Compound 13, 4-(5-cyclopropyl-1,3,4-oxadiazol-2-yl)-1-(3-fluoro-4-methylbenzyl)-1,3-dihydro-2H-benzo[b]azepin-2-one]
minimal effective concentration [1, 2]: 0.001 to 1 µM | minimal effective concentration [1, 3]: 0.001 to 1 µM | minimal effective concentration [1, 4]: 0.001 to 1 µM | minimal effective concentration (RPE-Neo or RPE-MYC cells): 0.001 to 1 µM

COc1ccc(CN2C(=O)CC(c3nnco3)=Cc3ccc(Br)cc32)cc1 [Compound 14, 8-bromo-1-(4-methoxybenzyl)-4-(1,3,4-oxadiazol-2-yl)-1,3-dihydro-2H-benzo[b]azepin-2-one]
minimal effective concentration [1, 2]: 0.001 to 1 µM | minimal effective concentration [1, 3]: 0.001 to 1 µM | minimal effective concentration [1, 4]: 0.001 to 1 µM | minimal effective concentration (RPE-Neo or RPE-MYC cells): 0.001 to 1 µM

COc1ccc(CN2C(=O)CC(c3nnc(C)o3)=Cc3ccc(Br)cc32)cc1 [Compound 15, 8-bromo-1-(4-methoxybenzyl)-4-(5-methyl-1,3,4-oxadiazol-2-yl)-1,3-dihydro-2H-benzo[b]azepin-2-one]
minimal effective concentration [1, 2]: 1 to 10 µM | minimal effective concentration [1, 3]: 1 to 10 µM | minimal effective concentration [1, 4]: 1 to 10 µM | minimal effective concentration (RPE-Neo or RPE-MYC cells): 1 to 10 µM

COc1ccc(CN2C(=O)CC(c3nnc(C)o3)=Cc3ccc(-c4cnn(C)c4)cc32)cc1 [Compound 16, 1-(4-methoxybenzyl)-4-(5-methyl-1,3,4-oxadiazol-2-yl)-8-(1-methyl-1H-pyrazol-4-yl)-1,3-dihydro-2H-benzo[b]azepin-2-one]
minimal effective concentration [1, 2]: 0.001 to 1 µM | minimal effective concentration [1, 3]: 0.001 to 1 µM | minimal effective concentration [1, 4]: 0.001 to 1 µM | minimal effective concentration (RPE-Neo or RPE-MYC cells): 0.001 to 1 µM

COc1ccc(CN2C(=O)CC3(c4ncc(C)o4)CC3c3ccc(Br)cc32)cc1 (stereo not shown) [Compound 17, 6-bromo-4-(4-methoxybenzyl)-1a-(5-methyloxazol-2-yl)-1a,2,4,8b-tetrahydrobenzo[b]cyclopropa[d]azepin-3(1H)-one]
minimal effective concentration [1, 2]: 1 to 10 µM | minimal effective concentration [1, 3]: 1 to 10 µM | minimal effective concentration [1, 4]: 1 to 10 µM | minimal effective concentration (RPE-Neo or RPE-MYC cells): 1 to 10 µM

Cc1cnc(C2=Cc3ccccc3N(Cc3ccc(C)c(F)c3)C(=O)C2)o1 [Compound 18, 1-(3-fluoro-4-methylbenzyl)-4-(5-methyloxazol-2-yl)-1,3-dihydro-2H-benzo[b]azepin-2-one]
minimal effective concentration [1, 2]: 0.001 to 1 µM | minimal effective concentration [1, 3]: 0.001 to 1 µM | minimal effective concentration [1, 4]: 0.001 to 1 µM | minimal effective concentration (RPE-Neo or RPE-MYC cells): 0.001 to 1 µM

Cc1cnc(C2=Cc3ccc(Br)cc3N(Cc3ccc(C)c(F)c3)C(=O)C2)o1 [Compound 19, 8-bromo-1-(3-fluoro-4-methylbenzyl)-4-(5-methyloxazol-2-yl)-1,3-dihydro-2H-benzo[b]azepin-2-one]
minimal effective concentration [1, 2]: 0.001 to 1 µM | minimal effective concentration [1, 3]: 0.001 to 1 µM | minimal effective concentration [1, 4]: 0.001 to 1 µM | minimal effective concentration (RPE-Neo or RPE-MYC cells): 0.001 to 1 µM
